Assays:
Plasmodium falciparum [1] = test: NOVARTIS: Inhibition of Plasmodium falciparum 3D7 (drug-susceptible) proliferation in erythrocyte-based infection assay; format: functional, organism-based; settings: Plasmodium falciparum, 3D7
Plasmodium falciparum [2] = test: NOVARTIS: Inhibition of Plasmodium falciparum W2 (drug-resistant) proliferation in erythrocyte-based infection assay; format: functional, organism-based
[3] = NOVARTIS: Cytotoxicity against human hepatocellular carcinoma cell line (Huh7); format: toxicity, cell-based, Huh-7; settings: Huh7 cells (hepatocellular carcinoma cell line)
[4] = Plasmodium falciparum, W2, read-out: EC50

Structure (SMILES) | EC50 (Plasmodium falciparum [1]) [nM] | EC50 (Plasmodium falciparum [2]; [4]) [nM] | CC50 [3] [nM] | EC50 (Plasmodium falciparum [2])
Nc1c(C(=O)NCc2ccccc2)nnn1Cc1ccc(F)cc1Cl | > 860 | 722 | > 10000 | –
Clc1nc(Nc2ccccc2)nc(N2CCCCC2)n1 | > 12500 | 381 | 48300 | –
CC(=O)N(C1=C(N(C)C)C(=O)c2ccccc2C1=O)c1ccc(Cl)cc1 | 31.4 | 69.1 | 5460 | –
CCc1nc2nc(C)cc(Nc3ccc(I)cc3)n2n1 | 260 | < 3 | > 100000 | –
COC(=O)c1cn2c(=O)c3ccccc3nc2c2ccccc12 | > 385 | > 1250 | > 10000 | –
CSc1cccc(NC(=O)C2C3C=CC4(O3)C2C(=O)N(Cc2ccc(F)cc2)C4C(=O)NC2CCCC(C)C2C)c1 (stereo unspecified) | 1430 | 875 | > 100000 | –
CCCCNC(=O)N1CCN(C(=O)C(Cc2c[nH]c3ccccc23)NC(=O)Nc2cccc(C#N)c2)CC1C (stereo unspecified) | 154 | 191 | > 100000 | –
COc1ccc(/C=C2/SC(Nc3ccc(F)cc3)=NC2=O)c(OC)c1 | 1060 | 916 | > 10000 | –
CC(C)(c1ccc(Oc2ccc(NC(=O)C(F)(F)F)cc2)cc1)c1cccc(Oc2ccc(NC(=O)C(F)(F)F)cc2)c1 | 2060 | > 986 | > 10000 | –
C=CCNC(=S)N1CCc2c([nH]c3ccccc23)C1C(F)(F)F (stereo unspecified) | 208 | 108 | 70700 | –
CSC1=NC(=Nc2c(C)cccc2C)C2(CCC(C(C)(C)C)CC2)N1c1ccc(Cl)cc1 (stereo unspecified) | 1480 | > 10000 | > 67300 | –
Cc1ccc(S(=O)(=O)N=C2C=C(Sc3nnc[nH]3)C(=O)c3ccccc32)cc1 | 1560 | 901 | 12800 | –
CCOC(=O)c1cnc2ccc(Cl)cc2c1NCCCN(C)C | 826 | 135 | 48200 | –
CCOC(=O)C1=C(C)NC2=C(C(=O)CC(c3ccc(OC)c(OC)c3)C2)C1c1cccc(Br)c1 (stereo unspecified) | 171 | 65.9 | > 100000 | –
Cc1ccc(-c2nn(CC(=O)Nc3ccc(OC(F)(F)F)cc3)c(=O)c3ccccc23)cc1S(=O)(=O)N1CCCCC1 | > 1250 | 1920 | > 10000 | –
c1ccc2c(c1)c1c(c3ccccc32)CN2CCCC2C1 (stereo unspecified) | 120 | 221 | > 10000 | –
CCCCCCN(C(=O)COCc1ccccc1)C(CC)c1nc2ccccc2c(=O)n1-c1cccc(Cl)c1 (stereo unspecified) | 42.2 | 75.8 | > 7770 | –
COc1cccc2cc(C(=O)Nc3cccc(C(F)(F)F)c3)c(=O)oc12 | > 1250 | 64 | > 2370 | –
O=C1NCCN1C(=O)C(c1ccccc1)c1ccccc1 | > 1540 | > 746 | > 10000 | –
Cc1ccc(C(=O)NNc2nc(Nc3ccccc3)nc(N3CCCC3)n2)cc1 | > 12500 | 1990 | > 100000 | –
C=CCNC(=O)c1cc2c(=O)n3ccccc3nc2n(CCc2ccccc2)c1=N | 1530 | 2320 | > 100000 | –
COc1ccc(-c2ccc3c(N)c(C(=O)NCCc4ccccc4)sc3n2)cc1OC | > 10800 | 4970 | > 100000 | –
COc1ccccc1N1CCN(c2ccc(NC(=O)/C=C/c3ccc([N+](=O)[O-])cc3)cc2C(=O)NCCCN(C)C)CC1 | 290 | 121 | 921 | –

Structure (SMILES) | EC50 (Plasmodium falciparum [1]) [nM] | EC50 (Plasmodium falciparum [2]; [4]) [nM] | CC50 [3] [nM] | EC50 (Plasmodium falciparum [2])
CCC(C(=O)Nc1sccc1C#N)c1ccccc1 (stereo unspecified) | > 971 | > 612 | > 10000 | –
O=C(COc1ccc(Cl)cc1)Nc1nnc(-c2ccc3c(c2)OCO3)s1 | > 1250 | 26.7 | > 13800 | –
O=C(Cn1c2ccccc2c(=O)c2cc([N+](=O)[O-])ccc21)Nc1ccc(F)c(Cl)c1 | > 12500 | 5670 | > 100000 | –
COc1cc(NC(C)CCCN(Cc2ccccc2OC)C(=O)c2ccc(Cl)c([N+](=O)[O-])c2)c2ncccc2c1 (stereo unspecified) | 1200 | < 18.2 | > 3910 | –
COc1ccc(C2CC(=O)C3=C(C2)NC(C)=C(C(=O)OC2CCCC2)C3c2ccccc2F)cc1OC (stereo unspecified) | 40.4 | 12 | 14900 | –
CC(C)(C)NCC(O)Cn1c2ccc(I)cc2c2cc(I)ccc21 (stereo unspecified) | 608 | 64 | 6090 | –
CC(NCc1ccccc1)c1cc(Cl)ccc1O (stereo unspecified) | 592 | 97.2 | 73300 | –
COc1cccc(NC(=O)C2C3C=CC4(O3)C2C(=O)N(Cc2ccc3c(c2)OCO3)C4C(=O)NC2CCCCC2C)c1 (stereo unspecified) | > 12500 | > 5310 | > 100000 | –
COC(=O)c1ccc2c(c1)C(=O)c1ccccc1C2C1c2ccccc2C(=O)c2cc(C(=O)OC)ccc21 (stereo unspecified) | 856 | 397 | > 10000 | –
N#Cc1cc(N2CC3CC(C2)c2cccc(=O)n2C3)c([N+](=O)[O-])cc1C#N (stereo unspecified) | > 12500 | 3360 | > 100000 | –
CCNC(=O)C=Cc1ccc(C(C)(C)C)cc1 | 616 | 719 | > 100000 | –
CCc1c(C)nc(SCC(=O)NNC(C)=O)nc1O | > 1250 | > 1030 | > 10000 | –
COc1ccc2nc(C)cc(Nc3cccc(Cl)c3)c2c1 | 371 | 1100 | 50200 | –
CC(C)[C@@]1(NC(=O)[C@@H]2C[C@@H]3c4cccc5[nH]cc(c45)C[C@H]3N(C)C2)O[C@@]2(O)[C@@H]3CCCN3C(=O)[C@H](Cc3ccccc3)N2C1=O [DIHYDROERGOCRISTINE] | 1250 | 449 | 33100 | –
Cc1nc2cc(-c3ccc(Br)cc3)nn2c(O)c1C | 2740 | – | > 100000 | No fit
CC(=O)Nc1cccc(NC(=O)C(F)(F)F)c1 | 1180 | > 1250 | > 10000 | –
O=C(Nn1c(SCc2cc(=O)n3ccccc3n2)nc2ccsc2c1=O)c1cccc(Br)c1 | > 928 | > 695 | > 10000 | –
O=C(/C=C/c1ccc(Br)cc1)NC(=O)c1ccccc1O | > 1250 | 1090 | > 10000 | –
CCOC(=O)c1cnc2cc(OCC(C)C)c(OCC(C)C)cc2c1O [BUQUINOLATE] | 649 | 958 | > 10000 | –
Oc1ccc(-c2cccnc2)cc1CNCC1CC2C=CC1C21CC1 (stereo unspecified) | 835 | < 23.3 | > 10000 | –
C=CCSc1nc2sc3c(c2c(=O)n1-c1ccccc1)CCN(CCC)C3 | 634 | 847 | > 100000 | –
O=C(Nc1ccc(Oc2ccccc2)cc1)NC(CN1CCCC1)c1ccccc1 (stereo unspecified) | 355 | 476 | 13600 | –
O=[N+]([O-])c1cccc2c(S(=O)(=O)NCCCN(CCO)CCO)cccc12 | > 1180 | > 1550 | > 10000 | –

Structure (SMILES) | EC50 (Plasmodium falciparum [1]) [nM] | EC50 (Plasmodium falciparum [2]; [4]) [nM] | CC50 [3] [nM] | EC50 (Plasmodium falciparum [2])
CCCCN(C)CCCNC(=O)c1ccc(Cl)c(NC(=O)Nc2ccc(Cl)c(Cl)c2)c1 | 233 | 822 | 20300 | –
Cc1nc2ccc(-c3ccc4nc(C)[nH]c4c3)cc2[nH]1 | 2090 | 844 | 8630 | –
COc1ccc(OC)c(-c2ccc(O)c(CNCC3(O)CCCCC3)c2)c1 | 818 | 762 | > 10000 | –
COc1ccc(-c2noc(CC(=O)Nc3ccccc3C#N)n2)cc1 | 6080 | 1380 | > 100000 | –
COc1ccc(C2=C(c3ccc(OC)cc3)C3(c4ccccc4)C(=O)C2(c2ccccc2)C2C(=O)N(c4ccccc4)C(=O)C23)cc1 (stereo unspecified) | 1400 | > 1130 | > 10000 | –
CCCCCc1ccc(OCCCC[n+]2cccc(C)c2C)c(CCCCC)c1 | 215 | 120 | 3000 | –
COc1cc(NC(C)CCCN(Cc2ccc(Cl)cc2)C(=O)Nc2ccc(Br)cc2)c2ncccc2c1 (stereo unspecified) | > 1250 | 788 | > 5600 | –
Cc1nc(N(C)c2ccc(C(C)C)cc2)c2c(C)c(C(=O)Nc3cc(C)on3)sc2n1 | 248 | 236 | > 100000 | –
CCCCc1c(CCC)c(=N)c2ccccc2n1C | 311 | 422 | 71900 | –
COc1ccc(C2CC(=O)C3=C(C2)NC(C)=C(C(=O)OC(C)C)C3c2ccc(Cl)cc2Cl)cc1OC (stereo unspecified) | 6.3 | 3.91 | > 100000 | –
COc1cc(OC)cc(C(=O)NCC2Cc3cc(Cl)cc(-c4ccncc4)c3O2)c1 (stereo unspecified) | 368 | 537 | 44100 | –
Nc1nc(N)c2c(OCc3ccc(C(F)(F)F)cc3)cccc2n1 | 782 | 972 | > 10000 | –
Cc1cc(C)c2c(c1)-c1c(ssc1=S)C(C)(C)N2C(=O)COc1nc2ccccc2s1 | 125 | 169 | > 100000 | –
CN(C)c1ccc(N=C2NC(=O)/C(=C/c3ccc(Cl)cc3)S2)cc1 | 819 | 1460 | > 10000 | –
COc1ccc(CN2CCC(Sc3ncccn3)CC2)cc1 | > 1440 | 950 | 702 | –
Cc1ccc(Nc2cc(C)nc(NCc3ccccc3)n2)c(C)c1 | 306 | 619 | 6510 | –
Cc1[nH]c2ccccc2c(=O)c1Br | 532 | 686 | > 100000 | –
Cc1cc(C)cc(-n2c(C)cc(/C=C3/SC(=Nc4ccc(Br)cc4)NC3=O)c2C)c1 | 325 | 588 | > 10000 | –
CN1CCN(c2nc(NN=Cc3cc(Br)c(O)cc3O)nc(Nc3ccc([N+](=O)[O-])cc3)n2)CC1 | 321 | 104 | > 10000 | –
CCCCCC(=O)NCCCCCCNc1ccnc2cc(Cl)ccc12 | 254 | 222 | > 13900 | –
CCCCCNC(=O)C1CSC(c2ccoc2)N1C(=O)c1ccccc1Cl (stereo unspecified) | 2320 | 1060 | > 100000 | –

Reference: ChEMBL document CHEMBL1156829 (Proc Natl Acad Sci U S A, 2008)
